Reference: the CheMixHub ionic liquid set

Assay: xn = mol fraction of the nth substance listed
Conditions: 100 kPa

CC[N+](CC)(CC)CC.F[B-](F)(F)F + CC#N
Conditions | electrical conductivity [S/m] | viscosity [mPa·s]
313.15 K, x1 = 0.03183 | – | 0.457
313.15 K, x1 = 0.03568 | – | 0.474
313.15 K, x1 = 0.03943 | – | 0.494
313.15 K, x1 = 0.0499 | 5.38 | –
313.15 K, x1 = 0.0698 | 5.95 | –
313.15 K, x1 = 0.08 | 6.36 | –
313.15 K, x1 = 0.1 | 6.72 | –
313.15 K, x1 = 0.1101 | 6.78 | –
318.15 K, x1 = 0.004202 | – | 0.338
318.15 K, x1 = 0.008244 | – | 0.35
318.15 K, x1 = 0.01214 | – | 0.365
318.15 K, x1 = 0.0162 | – | 0.38
318.15 K, x1 = 0.02 | 3.44 | –
318.15 K, x1 = 0.0201 | – | 0.383
318.15 K, x1 = 0.02405 | – | 0.399
318.15 K, x1 = 0.02791 | – | 0.423
318.15 K, x1 = 0.0301 | 4.17 | –
318.15 K, x1 = 0.03183 | – | 0.437
318.15 K, x1 = 0.03568 | – | 0.454
318.15 K, x1 = 0.03943 | – | 0.474
318.15 K, x1 = 0.0499 | 5.58 | –
318.15 K, x1 = 0.0698 | 6.18 | –
318.15 K, x1 = 0.08 | 6.59 | –
318.15 K, x1 = 0.1 | 7.01 | –
318.15 K, x1 = 0.1101 | 7.08 | –
323.15 K, x1 = 0.004202 | – | 0.326
323.15 K, x1 = 0.008244 | – | 0.337
323.15 K, x1 = 0.01214 | – | 0.35
323.15 K, x1 = 0.0162 | – | 0.364
323.15 K, x1 = 0.02 | 3.54 | –
323.15 K, x1 = 0.0201 | – | 0.367
323.15 K, x1 = 0.02405 | – | 0.383
323.15 K, x1 = 0.02791 | – | 0.405
323.15 K, x1 = 0.0301 | 4.32 | –
323.15 K, x1 = 0.03183 | – | 0.418
323.15 K, x1 = 0.03568 | – | 0.435
323.15 K, x1 = 0.03943 | – | 0.455
323.15 K, x1 = 0.0499 | 5.77 | –
323.15 K, x1 = 0.0698 | 6.41 | –
323.15 K, x1 = 0.08 | 6.84 | –
323.15 K, x1 = 0.1 | 7.27 | –
323.15 K, x1 = 0.1101 | 7.38 | –
328.15 K, x1 = 0.02 | 3.65 | –
328.15 K, x1 = 0.0301 | 4.46 | –
328.15 K, x1 = 0.0499 | 5.96 | –
328.15 K, x1 = 0.0698 | 6.63 | –
328.15 K, x1 = 0.08 | 7.08 | –
328.15 K, x1 = 0.1 | 7.56 | –
328.15 K, x1 = 0.1101 | 7.68 | –
333.15 K, x1 = 0.02 | 3.75 | –
333.15 K, x1 = 0.0301 | 4.59 | –
333.15 K, x1 = 0.0499 | 6.15 | –
333.15 K, x1 = 0.0698 | 6.86 | –
333.15 K, x1 = 0.08 | 7.33 | –
333.15 K, x1 = 0.1 | 7.83 | –
333.15 K, x1 = 0.1101 | 8.01 | –
338.15 K, x1 = 0.02 | 3.85 | –
338.15 K, x1 = 0.0301 | 4.73 | –
338.15 K, x1 = 0.0499 | 6.34 | –
338.15 K, x1 = 0.0698 | 7.08 | –
338.15 K, x1 = 0.08 | 7.57 | –
338.15 K, x1 = 0.1 | 8.15 | –
338.15 K, x1 = 0.1101 | 8.28 | –
343.15 K, x1 = 0.02 | 3.95 | –
343.15 K, x1 = 0.0301 | 4.86 | –
343.15 K, x1 = 0.0499 | 6.52 | –
343.15 K, x1 = 0.0698 | 7.29 | –
343.15 K, x1 = 0.08 | 7.8 | –
343.15 K, x1 = 0.1 | 8.43 | –
343.15 K, x1 = 0.1101 | 8.57 | –
348.15 K, x1 = 0.02 | 4.04 | –
348.15 K, x1 = 0.0301 | 4.99 | –
348.15 K, x1 = 0.0499 | 6.7 | –
348.15 K, x1 = 0.0698 | 7.51 | –
348.15 K, x1 = 0.08 | 8.04 | –
348.15 K, x1 = 0.1 | 8.73 | –
348.15 K, x1 = 0.1101 | 8.84 | –
